{"source": "patent EP2316926B1", "about": "“Enantioselective production of alpha-hydroxy carbonyl compounds” (priority 2009, dated 2011)", "type_in_all_cases": "biochemical", "key": {"[1]": {"target": "T1, Gox1615 (Gluconobacter oxydans, UniProt Q5FQJ0)", "T1 sequence (Q5FQJ0 1-332)": "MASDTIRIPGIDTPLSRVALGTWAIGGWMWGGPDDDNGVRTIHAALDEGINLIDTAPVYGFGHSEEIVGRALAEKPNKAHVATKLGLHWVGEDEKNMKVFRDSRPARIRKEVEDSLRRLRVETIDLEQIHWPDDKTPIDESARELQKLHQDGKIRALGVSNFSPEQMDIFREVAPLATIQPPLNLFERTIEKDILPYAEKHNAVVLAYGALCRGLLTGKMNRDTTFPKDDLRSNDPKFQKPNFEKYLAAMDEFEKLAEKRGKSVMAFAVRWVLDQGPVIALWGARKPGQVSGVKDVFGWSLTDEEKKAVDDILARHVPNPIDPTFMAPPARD", "assay": "Kinetic constants from purified enzyme by Lineweaver-Burk plots", "experimental": "(§1) Determination of pH and temperature optima and enzyme kinetics: The optimum pH for enzyme activities was determined by a modified method of Salusjärvi, T. et al., Appl. Microbiol. Biotechnol. 65:306-314 (2004) using the following buffer system (50 mM final concentration each): sodium acetate pH 4.5 - 6.5, potassium phosphate pH 6.5 - 8.0, Tris-HCl pH 8.0 - 10. Temperature optima for the biocatalysts were determined under standard reaction conditions at temperatures ranging from 20 - 80 °C. The Michaelis constant (Km) for the proteins was determined from purified enzyme by Lineweaver-Burk plots. Assays were performed at optimum pH for each enzyme and at 30 °C using the best substrate and a targeted substrate. The Km for each substrate was calculated using concentrations of 0.0025 to 10 mM, and the Km NAD(P)H and NAD(P) was calculated using concentrations of 0.01 to 0.5 mM\n(§2) 2.9 Kinetic parameters of the keto carbonyl reductases: Kinetic constants were determined from purified enzyme by Lineweaver-Burk plots. The Km and Vmax values for the substrates were calculated using concentrations of 0.025 to 10 mM. The optimal pH values and temperatures for enzyme activities are also shown in Tab. 8. Table 8: Summary of kinetic parameters"}, "[2]": {"target": "T2, Gox0644 (Gluconobacter oxydans, UniProt Q5FT75)", "assay": "Kinetic constants from purified enzyme by Lineweaver-Burk plots", "experimental": "as §1, §2"}, "[3]": {"target": "T1, Gox1615", "assay": "NADPH-dependent α-ketocarbonyl reductase activity assay (rate of decrease of NADPH at 340 nm)", "experimental": "Measurement of enzyme activity: NADPH-dependent α-ketocarbonyl reductases were assayed by a routine method used for NAD(P)-linked enzymes by recording the rate of decrease of NADPH at 340 nm (ε = 6.22 mM^-1 x cm^-1)) with substrates at 30 °C. The reaction mixture (1 ml) for reduction of α-ketocarbonyl substrates contained 10 mM substrate, 40 mM potassium phosphate buffer pH 7.0, 0.025 mM NAD(P)H and the enzyme. Reactions were induced by addition of enzyme or substrate. One unit was defined as the amount of enzyme activity catalyzing the conversion of 1 µmol of pyridine nucleotide per min at 30 °C. NMR Analysis of Biotransformation Products: Biotransformations were extracted with equal volumes of CDCl3. and ^13C NMR spectra were recorded on a Bruker Avance 300 DPX spectrometer operating at 300 MHz for ^1H NMR and at 75 MHz for ^13C NMR, respectively. Spectra were processed using Bruker TonSpin 1.3 for Windows software and calibrated to the residual solvent peak of CDCl3 (δH = 7.26 / δC = 77.0).\nNADPH-dependent α-ketocarbonyl reductases were assayed by a routine method used for NAD(P)-linked enzymes by recording the rate of decrease of NADPH at 340 nm (ε = 6.22 mM^-1.cm^-1) with substrates at 30 °C. The reaction mixture (1 ml) for reduction of α-ketocarbonyl substrates contained 10 mM substrate, 40 mM potassium phosphate buffer pH 7.0, 0.025 mM NADPH, and the enzyme. Reactions were induced by addition of enzyme or substrate. One unit of activity was defined as the amount of enzyme activity catalyzing the conversion of 1 µmol of pyridine nucleotide per min at 30 °C.\nPurified NAD(P)-dependent oxidoreductases were assayed at 30 °C by a routine method used for NAD(P)-linked enzymes by recording the rate of decrease of NAD(P)H at 340 nm (ε = 6.22 mM^-1˙cm^-1) with substrates capable of reduction reactions. The standard reaction mixture (1 ml) for the reduction reactions of substrates contained 10 mM substrate, 40 mM potassium phosphate buffer (K-phosphate buffer) pH 7.0, 0.05 mM NAD(P)H, and the enzyme unless otherwise noted. Reactions were induced by addition of enzyme or substrate. One unit of activity was defined as the amount of enzyme activity catalyzing the conversion of 1 µmol of pyridine nucleotide per min at 30 °C. Measurement of the protein content was performed by the method of Bradford (Bradford M.M., Anal. Biochem. 72:248-254 (1976)). Table 3: Enzymatic activities with α-diketones, α-ketoaldehydes and α-ketoesters"}, "[4]": {"target": "T2, Gox0644", "assay": "NADPH-dependent α-ketocarbonyl reductase activity assay (rate of decrease of NADPH at 340 nm)", "conditions": "Table 3; 10 mM substrate, 40 mM K-phosphate buffer pH 7.0, 0.05 mM NAD(P)H, 30 °C; U/mg = µmol x min^-1 x mg protein^-1", "experimental": "Reactions were induced by addition of enzyme or substrate. One unit was defined as the amount of enzyme activity catalyzing the conversion of 1 µmol of pyridine nucleotide per min at 30 °C. NMR Analysis of Biotransformation Products: Biotransformations were extracted with equal volumes of CDCl3. and ^13C NMR spectra were recorded on a Bruker Avance 300 DPX spectrometer operating at 300 MHz for ^1H NMR and at 75 MHz for ^13C NMR, respectively.\nReactions were induced by addition of enzyme or substrate. One unit of activity was defined as the amount of enzyme activity catalyzing the conversion of 1 µmol of pyridine nucleotide per min at 30 °C.\nThe standard reaction mixture (1 ml) for the reduction reactions of substrates contained 10 mM substrate, 40 mM potassium phosphate buffer (K-phosphate buffer) pH 7.0, 0.05 mM NAD(P)H, and the enzyme unless otherwise noted. Reactions were induced by addition of enzyme or substrate. One unit of activity was defined as the amount of enzyme activity catalyzing the conversion of 1 µmol of pyridine nucleotide per min at 30 °C. […] Table 3: Enzymatic activities with α-diketones, α-ketoaldehydes and α-ketoesters"}}, "data": [{"smiles": "CCC(=O)C(C)=O", "note": "[2,3-pentanedione]", "values": [{"measurement": "Vmax", "setting": "[1]", "value": 7.0, "unit": "U/mg protein"}, {"measurement": "Vmax", "setting": "[2]", "value": 70, "unit": "U/mg protein"}, {"measurement": "Gox1615 U/mg*", "setting": "[3]; Table 3, 10 mM substrate, 40 mM K-phosphate buffer pH 7.0, 0.05 mM NAD(P)H, 30 °C, U/mg = µmol x min^-1 x mg protein^-1", "value": 7.0, "unit": "U/mg"}, {"measurement": "Specific Activity (U/mg)*", "setting": "[3]; Table 5, cofactor NADPH, U/mg = µmol/mg·min", "value": 7.0, "unit": "U/mg"}, {"measurement": "Gox0644 U/mg*", "setting": "[4]", "value": 69.6, "unit": "U/mg"}]}]}
